Data as given in US20260097060A1, “PHARMACEUTICAL COMPOSITION COMPRISING ENAVOGLIFLOZIN FOR PREVENTING OR TREATING CARDIOVASCULAR AGING DISEASES” (DAEWOONG PHARMACEUTICAL CO., LTD., priority 2022, published 2026).

Key:
[1] = system: porcine coronary artery rings; assay: Evaluation of vascular function (bradykinin-induced relaxation of coronary artery rings, organ chamber); conditions: for bradykinin concentration at which vasorelaxation was significantly increased compared to nanoplastics alone: nanoplastics + 1 μM test drug
Experimental: Vascular endothelial cells play an important role in maintaining vascular homeostasis, but senescence is known to cause vascular dysfunction. Therefore, vascular reactivity of vascular endothelial cells was evaluated to see whether enavogliflozin prevents vascular dysfunction caused by the exposure to nanoplastics. In addition, the evaluation was performed together with the competing material, empagliflozin, and thus their effects were compared.
Specifically, the left anterior descending coronary artery of the porcine heart was resected into rings with a size of 2 to 3 mm. An experiment was conducted with a control, a group treated with 10 µg/mL of nanoplastics, groups treated with […] of nanoplastics+different concentrations of enavogliflozin (0.01, 0.1, and 1 μM), and a group treated with 10 µg/mL of nanoplastics+[…] empagliflozin. The coronary artery rings were placed in Crabb's solution at 37° C. in an organ chamber (95% 02, 5% CO2) to measure changes in isometric tension. The viability of each coronary ring was confirmed by constant […] loading at 5 g for 90 minutes and repeated contractions with up to 80 mM KCl. After washing for 30 minutes, the coronary artery rings were constricted to approximately 80% (maximum contraction) using the thromboxane mimetic U46619 and treated with bradykinin. The relaxation rate of blood vessels in relation to the concentration of bradykinin was then calculated. The results are shown in the graph of FIG. 10.
For statistical data analysis, Prism 5.03 software (GraphPad Software Inc., San Diego, CA, USA) was used. The test results are expressed as the mean±standard error of the mean (SEM). The statistical method was to conduct a two-way ANOVA to verify the difference between groups, and a post hoc test for each type was performed using the verification method with the Bonferroni function. The significance level was set to be p<0.05.
Bradykinin is a biomaterial, and when a bradykinin receptor is activated, endothelial nitric oxide synthase (eNOS) is activated, releasing nitric oxide (NO) and relaxing blood vessels.

eNOS = assay: Measurement of expression of eNOS (western blot); type: cell-based, porcine; conditions: nanoplastics + enavogliflozin 0.01, 0.1 and 1 μM, 24 hours
Experimental: Reduced eNOS expression is a common feature in endothelial senescence, and is known to cause endothelial dysfunction. Here, the expression of eNOS was measured, thereby confirming that enavogliflozin improves the damage to the endothelial function caused by the exposure to nanoplastics.
Specifically, the cells were seeded at 1×10^5 cells/well in a 6-well plate. The cells were cultured in DMEM containing 10% FBS, penicillin (100 U/mL), streptomycin (100 U/mL), and fungizone ([…]) in a CO2 incubator at 37° C. […]
To lyse the porcine coronary artery endothelial cells, 1×RIPA buffer was added to each well and the cells were lysed for 10 minutes. […] Protein quantification of the obtained cell lysate was measured using Bio-Rad DC protein reagent. […]
After eNOS (1:1,000) and 3-actin (1:1,000) as primary antibodies were reacted at 4° C. for 24 hours, the resulting product was washed 3 to 5 times with 1×TBS-T buffer for 10 minutes. […] Protein bands were treated with an ECL solution and detected using Amersham imager 680.
(§1) For statistical data analysis, Prism 5.03 software (GraphPad Software Inc., San Diego, CA, USA) was used. The test results are expressed as the mean±standard error of the mean (SEM). […]

[2] = system: Nox2 and p22phox, membrane catalytic subunits of NADPH oxidase; assay: Expression of oxidative stress-associated markers (western blot); type: cell-based, porcine; conditions: nanoplastics + enavogliflozin 0.01, 0.1 and 1 μM, 24 hours
Experimental: In the porcine coronary artery endothelial cells, it is known that NADPH oxidase produces a peroxide in endothelial cells to cause cellular senescence and endothelial dysfunction. Oxidative stress in cells was assessed by measuring the expression of Nox2 and p22phox, which are membrane catalytic subunits of the NAPDH oxidase.
(§2) Specifically, the cells were seeded at 1×10^5 cells/well in a 6-well plate. The cells were incubated in DMEM containing 10% FBS, penicillin (100 U/mL), streptomycin (100 U/mL), and fungizone ([…]) in a CO2 incubator at 37° C. The cells were divided into a control, a group treated with 10 µg/mL of nanoplastics, and groups treated with nanoplastics+different concentrations of enavogliflozin (0.01, 0.1, and 1 μM), treated with a sample, and then incubated for 24 hours.
To lyse the porcine coronary artery endothelial cells, 1×RIPA buffer was added to each well and the cells were lysed for 10 minutes. The cells were scraped with a scraper and centrifuged at 14,000 rpm and 4° C. for 15 minutes. Protein quantification of the obtained cell lysate was measured using Bio-Rad DC protein reagent. Analysis was performed by equally loading […] of protein. […]
as §1

[3] = Dissolution test (Korean Pharmacopoeia method 2, paddle method); type: physicochemical
Experimental: Since the dissolution rate of the active ingredient in the pharmaceutical composition affects the maximum blood concentration (Cmax) and the blood concentration-area under the blood concentration-time curve (AUC) when administering the drug, to achieve appropriate Cmax and AUC, it is important to adjust the dissolution rate of the pharmaceutical composition. Since enavogliflozin has a Tmax of 1 to 2 hours, the drug absorption rate in the stomach is considered important. The above dissolution rate was measured under the condition of the dissolved solution 1.2 in accordance with the dissolution test method 2 of the Korean Pharmacopoeia (paddle method). For specific conditions, refer to the following experimental examples.

[4] = system: porcine coronary artery endothelial cells; assay: Evaluation of cell proliferation effect (MTS); type: cell-based; conditions: nanoplastics + enavogliflozin 0.01, 0.1 and 1 μM, 24 hours, vs nanoplastics
Experimental: Cell cycle arrest is one of the main features of cellular senescence. It was confirmed whether enavogliflozin could improve decreased proliferation of endothelial cells, that is, cellular senescence, caused by the exposure to nanoplastics.
Specifically, after extracting the porcine coronary artery, the porcine coronary artery was treated with collagenase for 20 minutes and centrifuged to obtain coronary artery endothelial cells. The cells were seeded at 1×10^4 cells/well in a 96-well plate. The cells were incubated in DMEM containing 10% FBS, penicillin (100 U/mL), streptomycin (100 U/mL), and fungizone ([…]) in a 5% CO2 incubator at 37° C. The cells were divided into a control, a group treated with 10 µg/mL of nanoplastics, and groups treated with the nanoparticles+different concentrations of enavogliflozin (0.01, 0.1, and 1 μM) to perform the experiment, and the cell proliferation effect was measured using a CellTiter 96 Aqueous One Solution Cell Proliferation Assay (Promega Corporation, USA) kit. Samples were treated and incubated for 24 hours, and treated with an MTS tetrazolium solution (20 μL/well) to allow a reaction for 3 hours, and then absorbance was measured at 490 nm using an Enspire Multilabel Reader (Perkin Elmer Ltd.).
For statistical data analysis, Prism 5.03 software (GraphPad Software Inc., San Diego, CA, USA) was used. […]

[5] = system: reactive oxygen species (ROS); assay: Evaluation of oxidative stress (ROS, DCF-DA and DHE fluorescence); type: cell-based, porcine; conditions: 10 µg/mL nanoplastics + enavogliflozin 0.01, 0.1 and 1 μM
Experimental: Oxidative stress was measured using dihydroethidium (DHE) and 2′,7′-dichlorodihydrofluorescein diacetate (DCF-DA).
Specifically, porcine coronary artery endothelial cells were seeded at 1×10^4 cells/well in a black 96-well plate. The cells were divided into a control, a group treated with 10 µg/mL of nanoplastics, and groups treated with 10 µg/mL of the nanoparticles+different concentrations of enavogliflozin (0.01, 0.1, and 1 μM) to perform the experiment. The cells were incubated in DMEM containing 10% FBS, penicillin (100 U/mL), streptomycin (100 U/mL), and fungizone ([…]) in a CO2 incubator at 37° C. After 24-hour incubation, the amount of reactive oxygen species (ROS) produced was measured by fluorescent absorbance (excitation/emission 485/535 nm).
To measure the ROS produced also in the coronary artery rings, the coronary artery rings were treated with samples for each group, and immersed in a frame containing an OCT solution (Leica Biosystems) and frozen in liquid nitrogen. The frozen result was cut into […] sections using a cryotome, and the sections were stained with DHE (10 μM) and incubated at 37° C. for 45 minutes, washed with PBS, and then observed using a fluorescence microscope.
as §1

[6] = system: cellular senescence markers p53 and p21; assay: Expression of endothelial cell senescence markers (western blot); type: cell-based, porcine; conditions: nanoplastics + enavogliflozin 0.01, 0.1 and 1 μM, 24 hours
Experimental: The expression of cellular senescence markers p53 and p21 was confirmed in porcine coronary artery endothelial cells.
as §2, with “were cultured” for “were incubated”, “10 μg/mL” for “10 µg/mL”, “with the nanoparticles+different” for “with nanoplastics+different”, “μM), and then the cells were” for “μM),”, “with samples” for “with a sample,”, “and” for “and then”
To lyse the porcine coronary artery endothelial cells, 1×RIPA buffer was added to each well and the cells were lysed for 10 minutes. The cells were scraped with a scraper and centrifuged at 14,000 rpm and 4° C. for 15 minutes. Protein quantification of the obtained cell lysate was measured using Bio-Rad DC protein reagent. Analysis was performed by equally loading 15 g of protein.
After reacting with p53 (1:1,000), p21 (1:1,000), and β-actin (1:1,000) as primary antibodies at 4° C. for 24 hours, the cells were washed 3 to 5 times with 1×TBS-T buffer for 10 minutes. […]
as §1

Pharmacokinetics (Tmax) = type: in vivo; conditions: blood, oral
[7] = system: porcine coronary artery rings and coronary artery-derived endothelial cells; assay: Evaluation of β-galactosidase (SA-β-Gal) activity (X-gal staining); type: cell-based; conditions: 10 µg/mL nanoplastics + enavogliflozin 0.01, 0.1 and 1 μM, 24 hours, vs nanoplastics
Experimental: Senescence-related β-galactosidase (SA-β-Gal) activity is the characteristic of senescent cells, and used as a histochemical marker for senescence.
Specifically, the porcine coronary artery was cut into a size of 2 to 3 mm to form coronary artery rings. Next, the coronary artery rings were divided into a control, a group treated with 10 µg/mL of nanoplastics, and groups treated with 10 µg/mL of the nanoparticles+different concentrations of enavogliflozin (0.01, 0.1, and 1 μM) to perform the experiment. After 24-hour culture, the cells were fixed with 4% formaldehyde, and stained with an X-gal dye to allow a reaction for one day.
Subsequently, the coronary artery rings were immersed in an optimal cutting temperature (OCT) solution (Leica Biosystems) and cut to 10 μm sections using a cryotome at −25° C. and observed under a microscope. The results are shown in the photograph in FIG. 5. In addition, the evaluation of β-galactosidase activity in endothelial cells derived from the porcine coronary artery is as follows. […]
as §1

Row | 30-minute dissolution rate ([3]; average particle size of enavogliflozin) | Tmax (Pharmacokinetics (Tmax)) [h] | Compound | bradykinin concentration at which vasorelaxation was significantly increased compared to nanoplastics alone [1] [nM] | eNOS expression (eNOS) | expression of Nox2 [2] | expression of p22phox [2] | 5-minute dissolution rate ([3]; average particle size of enavogliflozin greater than 15 m) | cell proliferation [4] | fluorescence intensity of DCF-DA (ROS production) [5] | fluorescence intensity of DHE (ROS production) [5] | expression of p21 protein [6] | expression of p53 protein [6] | bradykinin-induced vasorelaxation ([1]; 10 µg/mL nanoplastics + enavogliflozin 0.01, 0.1 and 1 μM, vs nanoplastics alone) | β-galactosidase (SA-β-Gal) activity [7]
1 |  |  | OC[C@H]1O[C@@H](c2ccc(Cl)c(Cc3ccc(O[C@H]4CCOC4)cc3)c2)[C@H](O)[C@@H](O)[C@@H]1O [empagliflozin, reference compound] | ≥ 30 |  |  |  |  |  |  |  |  |  |  | 
2 | less than 80% | 1 to 2 | OC[C@H]1O[C@@H](c2cc(Cc3ccc(C4CC4)cc3)c(Cl)c3c2CCO3)[C@H](O)[C@@H](O)[C@@H]1O [enavogliflozin] | ≥ 0.3 | significantly increase | significantly decreased in a concentration-dependent manner | significantly decreased in a concentration-dependent manner | less than 40 % of the total content of enavogliflozin | improved | significantly decreased | significantly decreased | significantly decreased in a concentration-dependent manner | significantly decreased in a concentration-dependent manner | significantly increased | significantly reduced
